Measurements taken from ChEMBL document CHEMBL5212743, “Selectivity Literature for EUbOPEN Chemogenomics Library wave 3” (2023).
Blank lines part the entries; values can stand above or below the compound they belong to.

How the values were obtained:
[1] = target: Kappa-type opioid receptor (Homo sapiens, UniProt P41145); experiment: Selectivity interaction (GPCR panel (PDSP screen)) EUB0000344a OPRK1; conditions: at 10 µM
[2] = system: Receptor-type tyrosine-protein kinase FLT3 (Homo sapiens), P36888 [K663Q]; experiment: Selectivity interaction (KinomeScan (DiscoverX)) EUB0000344a FLT3; conditions: at 1 µM
[3] = target: Ribosomal protein S6 kinase beta-1 (Homo sapiens) (UniProt P23443); experiment: Selectivity interaction (KinomeScan (DiscoverX)) EUB0000344a RPS6KB1; conditions: at 1 µM
Sequence of Ribosomal protein S6 kinase beta-1 (Homo sapiens) (P23443 whole entry, looked up): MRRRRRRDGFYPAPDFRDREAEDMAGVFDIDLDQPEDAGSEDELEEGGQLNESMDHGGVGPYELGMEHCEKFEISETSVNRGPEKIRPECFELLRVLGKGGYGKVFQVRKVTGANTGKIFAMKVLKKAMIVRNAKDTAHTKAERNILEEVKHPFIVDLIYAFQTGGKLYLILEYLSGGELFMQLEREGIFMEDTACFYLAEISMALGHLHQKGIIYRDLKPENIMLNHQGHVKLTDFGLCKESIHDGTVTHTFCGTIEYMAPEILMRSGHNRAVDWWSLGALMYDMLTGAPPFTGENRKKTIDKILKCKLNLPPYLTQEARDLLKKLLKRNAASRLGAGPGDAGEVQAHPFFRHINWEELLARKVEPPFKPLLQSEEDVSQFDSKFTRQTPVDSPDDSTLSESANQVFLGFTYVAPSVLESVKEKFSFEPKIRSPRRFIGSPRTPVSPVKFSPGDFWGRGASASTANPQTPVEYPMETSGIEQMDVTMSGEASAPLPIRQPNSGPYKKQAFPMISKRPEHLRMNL

[4] = target: T1, Serine/threonine-protein kinase TAO3 (Homo sapiens) (UniProt Q9H2K8); experiment: Selectivity interaction (KinomeScan (DiscoverX)) EUB0000706a TAOK3; conditions: at 1 µM
T1 sequence (whole entry): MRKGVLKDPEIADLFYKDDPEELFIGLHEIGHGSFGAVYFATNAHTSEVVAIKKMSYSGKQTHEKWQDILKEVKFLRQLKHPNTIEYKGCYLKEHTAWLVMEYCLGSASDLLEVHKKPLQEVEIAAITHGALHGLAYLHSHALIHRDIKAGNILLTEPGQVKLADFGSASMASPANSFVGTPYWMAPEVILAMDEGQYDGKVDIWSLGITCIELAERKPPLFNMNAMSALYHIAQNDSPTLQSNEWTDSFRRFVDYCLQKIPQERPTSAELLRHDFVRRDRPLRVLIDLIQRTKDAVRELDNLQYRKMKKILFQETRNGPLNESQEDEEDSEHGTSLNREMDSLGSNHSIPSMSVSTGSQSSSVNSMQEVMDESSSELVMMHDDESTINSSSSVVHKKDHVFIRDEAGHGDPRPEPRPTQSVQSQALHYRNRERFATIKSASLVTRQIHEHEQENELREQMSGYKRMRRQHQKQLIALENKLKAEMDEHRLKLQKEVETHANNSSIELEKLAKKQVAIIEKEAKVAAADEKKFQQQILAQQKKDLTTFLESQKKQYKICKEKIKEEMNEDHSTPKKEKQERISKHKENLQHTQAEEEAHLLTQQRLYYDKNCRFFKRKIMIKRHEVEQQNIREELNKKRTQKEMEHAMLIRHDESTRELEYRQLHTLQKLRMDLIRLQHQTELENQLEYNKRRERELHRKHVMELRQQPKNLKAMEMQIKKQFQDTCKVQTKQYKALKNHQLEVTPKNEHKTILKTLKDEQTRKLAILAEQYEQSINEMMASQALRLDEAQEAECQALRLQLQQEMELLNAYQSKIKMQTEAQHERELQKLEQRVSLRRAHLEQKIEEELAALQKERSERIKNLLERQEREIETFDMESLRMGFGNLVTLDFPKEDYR

[5] = target: T2, Tyrosine-protein kinase JAK3 (Homo sapiens) (UniProt P52333); experiment: Selectivity interaction (KinomeScan (DiscoverX)) EUB0000706a JAK3; conditions: at 1 µM
T2 sequence (whole entry): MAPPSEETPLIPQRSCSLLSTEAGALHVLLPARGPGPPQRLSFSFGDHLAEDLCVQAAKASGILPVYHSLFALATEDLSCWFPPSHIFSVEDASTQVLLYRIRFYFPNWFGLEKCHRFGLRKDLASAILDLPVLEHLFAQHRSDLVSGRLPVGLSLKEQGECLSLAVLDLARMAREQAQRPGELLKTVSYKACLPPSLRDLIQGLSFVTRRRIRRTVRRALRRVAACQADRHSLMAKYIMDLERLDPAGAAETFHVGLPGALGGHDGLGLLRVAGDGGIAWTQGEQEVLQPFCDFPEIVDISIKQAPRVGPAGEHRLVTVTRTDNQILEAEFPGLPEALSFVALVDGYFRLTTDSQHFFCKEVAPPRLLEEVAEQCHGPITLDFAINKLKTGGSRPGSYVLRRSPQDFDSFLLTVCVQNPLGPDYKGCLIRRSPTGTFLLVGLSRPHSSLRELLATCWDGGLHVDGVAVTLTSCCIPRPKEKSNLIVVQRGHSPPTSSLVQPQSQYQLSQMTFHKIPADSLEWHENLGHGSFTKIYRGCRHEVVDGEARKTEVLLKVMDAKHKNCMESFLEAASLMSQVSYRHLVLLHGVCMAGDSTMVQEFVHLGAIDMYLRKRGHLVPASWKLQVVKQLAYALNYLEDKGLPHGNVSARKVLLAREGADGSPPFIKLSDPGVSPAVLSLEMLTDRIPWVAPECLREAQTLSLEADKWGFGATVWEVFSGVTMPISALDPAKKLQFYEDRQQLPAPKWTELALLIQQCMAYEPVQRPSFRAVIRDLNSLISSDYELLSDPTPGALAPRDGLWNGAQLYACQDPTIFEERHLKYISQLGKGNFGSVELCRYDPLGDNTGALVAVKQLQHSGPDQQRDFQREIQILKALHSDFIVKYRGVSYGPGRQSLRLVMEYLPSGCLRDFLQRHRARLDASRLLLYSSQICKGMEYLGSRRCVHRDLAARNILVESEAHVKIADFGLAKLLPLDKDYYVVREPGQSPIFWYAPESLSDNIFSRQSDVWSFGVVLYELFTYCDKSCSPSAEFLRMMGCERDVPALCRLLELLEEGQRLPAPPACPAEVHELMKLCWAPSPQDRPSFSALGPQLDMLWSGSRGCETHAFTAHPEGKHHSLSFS

[6] = target: Phosphatidylinositol 4,5-bisphosphate 3-kinase catalytic subunit alpha isoform (Homo sapiens, UniProt P42336); experiment: Selectivity interaction (KinomeScan (DiscoverX)) EUB0000706a PIK3CA; conditions: at 1 µM
Sequence of Phosphatidylinositol 4,5-bisphosphate 3-kinase catalytic subunit alpha isoform (P42336 whole entry, canonical isoform): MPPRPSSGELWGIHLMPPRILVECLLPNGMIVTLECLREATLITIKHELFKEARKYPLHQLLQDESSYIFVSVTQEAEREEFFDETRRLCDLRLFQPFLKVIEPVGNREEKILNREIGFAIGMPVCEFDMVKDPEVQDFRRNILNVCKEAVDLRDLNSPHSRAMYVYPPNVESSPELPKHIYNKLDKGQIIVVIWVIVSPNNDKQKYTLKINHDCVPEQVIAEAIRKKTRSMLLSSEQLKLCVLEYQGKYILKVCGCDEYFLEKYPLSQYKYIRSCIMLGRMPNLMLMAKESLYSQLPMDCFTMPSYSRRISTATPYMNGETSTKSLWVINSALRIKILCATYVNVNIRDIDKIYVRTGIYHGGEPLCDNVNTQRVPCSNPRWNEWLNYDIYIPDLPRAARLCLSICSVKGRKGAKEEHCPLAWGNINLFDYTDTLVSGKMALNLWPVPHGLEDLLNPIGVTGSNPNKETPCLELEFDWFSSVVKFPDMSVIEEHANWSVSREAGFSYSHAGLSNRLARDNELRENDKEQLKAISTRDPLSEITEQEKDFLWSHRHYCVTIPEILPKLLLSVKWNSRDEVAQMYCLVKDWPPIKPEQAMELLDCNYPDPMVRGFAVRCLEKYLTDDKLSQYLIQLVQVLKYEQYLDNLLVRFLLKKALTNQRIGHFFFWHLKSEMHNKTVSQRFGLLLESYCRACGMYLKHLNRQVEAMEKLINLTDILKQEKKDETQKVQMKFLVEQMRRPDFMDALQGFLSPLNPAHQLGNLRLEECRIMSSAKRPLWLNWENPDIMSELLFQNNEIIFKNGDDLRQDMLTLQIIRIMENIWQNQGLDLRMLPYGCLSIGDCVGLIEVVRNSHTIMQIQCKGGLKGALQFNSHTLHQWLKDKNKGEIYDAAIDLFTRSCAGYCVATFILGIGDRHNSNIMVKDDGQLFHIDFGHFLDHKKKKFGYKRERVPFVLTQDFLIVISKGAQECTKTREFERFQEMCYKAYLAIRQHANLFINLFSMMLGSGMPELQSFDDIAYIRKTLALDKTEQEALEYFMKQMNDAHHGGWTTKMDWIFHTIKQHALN

[7] = target: T3, Dual specificity tyrosine-phosphorylation-regulated kinase 1B (Homo sapiens, UniProt Q9Y463); experiment: Selectivity interaction (KinomeScan (DiscoverX)) EUB0000733a DYRK1B; conditions: at 1 µM
T3 sequence (Q9Y463 whole entry, looked up): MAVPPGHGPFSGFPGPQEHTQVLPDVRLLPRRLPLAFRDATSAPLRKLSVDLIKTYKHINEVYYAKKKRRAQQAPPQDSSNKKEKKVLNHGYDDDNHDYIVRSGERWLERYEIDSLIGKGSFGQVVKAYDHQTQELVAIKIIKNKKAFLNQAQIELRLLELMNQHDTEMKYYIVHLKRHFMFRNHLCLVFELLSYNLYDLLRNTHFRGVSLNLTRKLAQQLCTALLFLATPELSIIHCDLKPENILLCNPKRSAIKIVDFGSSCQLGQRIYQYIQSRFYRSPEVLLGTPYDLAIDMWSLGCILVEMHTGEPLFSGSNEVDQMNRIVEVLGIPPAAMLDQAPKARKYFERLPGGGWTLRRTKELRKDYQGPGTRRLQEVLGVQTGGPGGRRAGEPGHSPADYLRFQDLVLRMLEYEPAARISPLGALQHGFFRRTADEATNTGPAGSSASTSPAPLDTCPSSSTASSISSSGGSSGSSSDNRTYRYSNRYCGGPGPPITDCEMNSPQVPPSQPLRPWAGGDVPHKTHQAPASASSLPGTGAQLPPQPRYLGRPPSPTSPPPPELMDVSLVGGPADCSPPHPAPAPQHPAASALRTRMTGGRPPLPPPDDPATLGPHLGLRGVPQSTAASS

[8] = target: T3, Dual specificity tyrosine-phosphorylation-regulated kinase 1B; experiment: Selectivity interaction (KinomeScan (DiscoverX)) EUB0000313b DYRK1B; conditions: at 1 µM
[9] = target: Dual specificity tyrosine-phosphorylation-regulated kinase 1A (Homo sapiens, UniProt Q13627); experiment: Selectivity interaction (KinomeScan (DiscoverX)) EUB0000313b DYRK1A; conditions: at 1 µM
[10] = target: Muscarinic acetylcholine receptor M3 (Homo sapiens) (UniProt P20309); experiment: Selectivity interaction (GPCR panel (PDSP screen)) EUB0000546a CHRM3; conditions: at 10 µM
Sequence of Muscarinic acetylcholine receptor M3 (Homo sapiens) (P20309 whole entry, looked up): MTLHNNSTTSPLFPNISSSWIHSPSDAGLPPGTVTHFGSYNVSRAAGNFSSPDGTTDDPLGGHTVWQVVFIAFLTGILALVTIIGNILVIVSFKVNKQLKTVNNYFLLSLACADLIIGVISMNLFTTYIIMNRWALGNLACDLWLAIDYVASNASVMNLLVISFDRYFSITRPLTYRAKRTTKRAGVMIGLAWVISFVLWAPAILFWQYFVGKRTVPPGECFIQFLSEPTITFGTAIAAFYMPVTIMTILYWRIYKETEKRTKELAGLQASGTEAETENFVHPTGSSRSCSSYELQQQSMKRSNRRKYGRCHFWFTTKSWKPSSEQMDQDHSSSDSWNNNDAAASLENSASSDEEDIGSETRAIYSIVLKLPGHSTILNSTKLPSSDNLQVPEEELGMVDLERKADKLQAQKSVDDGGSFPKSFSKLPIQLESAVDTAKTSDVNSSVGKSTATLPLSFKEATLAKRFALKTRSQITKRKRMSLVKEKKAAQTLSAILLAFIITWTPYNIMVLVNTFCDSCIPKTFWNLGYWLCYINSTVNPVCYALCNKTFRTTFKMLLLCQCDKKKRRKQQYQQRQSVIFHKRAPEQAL

[11] = target: T4, Gamma-aminobutyric acid receptor subunit alpha-1 (Homo sapiens) (UniProt P14867); experiment: Selectivity interaction (GPCR panel (PDSP screen)) EUB0000546a GABRA1; conditions: at 10 µM
T4 sequence (whole entry): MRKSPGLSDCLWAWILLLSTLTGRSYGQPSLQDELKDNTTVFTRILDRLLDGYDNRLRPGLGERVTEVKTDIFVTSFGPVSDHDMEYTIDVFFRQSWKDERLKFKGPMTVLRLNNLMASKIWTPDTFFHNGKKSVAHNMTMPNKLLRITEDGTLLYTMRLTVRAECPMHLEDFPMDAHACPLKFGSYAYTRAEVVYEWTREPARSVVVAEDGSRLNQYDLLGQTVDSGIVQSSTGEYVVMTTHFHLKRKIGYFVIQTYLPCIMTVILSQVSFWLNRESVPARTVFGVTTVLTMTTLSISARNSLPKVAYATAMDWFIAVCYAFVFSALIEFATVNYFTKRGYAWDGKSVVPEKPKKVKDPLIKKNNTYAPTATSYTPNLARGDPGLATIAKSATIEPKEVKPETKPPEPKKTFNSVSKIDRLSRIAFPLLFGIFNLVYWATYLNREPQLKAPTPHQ

[12] = target: Tyrosine-protein kinase ABL1 (Homo sapiens, UniProt P00519); experiment: Selectivity interaction (KiNativ profiling (A375 live cells treatment assays)) EUB0000238b ABL1; conditions: at 1 µM
[13] = target: Tyrosine-protein kinase ABL2 (Homo sapiens) (UniProt P42684); experiment: Selectivity interaction (KiNativ profiling (A375 live cells treatment assays)) EUB0000238b ABL2; conditions: at 1 µM
Sequence of Tyrosine-protein kinase ABL2 (Homo sapiens) (P42684 whole entry): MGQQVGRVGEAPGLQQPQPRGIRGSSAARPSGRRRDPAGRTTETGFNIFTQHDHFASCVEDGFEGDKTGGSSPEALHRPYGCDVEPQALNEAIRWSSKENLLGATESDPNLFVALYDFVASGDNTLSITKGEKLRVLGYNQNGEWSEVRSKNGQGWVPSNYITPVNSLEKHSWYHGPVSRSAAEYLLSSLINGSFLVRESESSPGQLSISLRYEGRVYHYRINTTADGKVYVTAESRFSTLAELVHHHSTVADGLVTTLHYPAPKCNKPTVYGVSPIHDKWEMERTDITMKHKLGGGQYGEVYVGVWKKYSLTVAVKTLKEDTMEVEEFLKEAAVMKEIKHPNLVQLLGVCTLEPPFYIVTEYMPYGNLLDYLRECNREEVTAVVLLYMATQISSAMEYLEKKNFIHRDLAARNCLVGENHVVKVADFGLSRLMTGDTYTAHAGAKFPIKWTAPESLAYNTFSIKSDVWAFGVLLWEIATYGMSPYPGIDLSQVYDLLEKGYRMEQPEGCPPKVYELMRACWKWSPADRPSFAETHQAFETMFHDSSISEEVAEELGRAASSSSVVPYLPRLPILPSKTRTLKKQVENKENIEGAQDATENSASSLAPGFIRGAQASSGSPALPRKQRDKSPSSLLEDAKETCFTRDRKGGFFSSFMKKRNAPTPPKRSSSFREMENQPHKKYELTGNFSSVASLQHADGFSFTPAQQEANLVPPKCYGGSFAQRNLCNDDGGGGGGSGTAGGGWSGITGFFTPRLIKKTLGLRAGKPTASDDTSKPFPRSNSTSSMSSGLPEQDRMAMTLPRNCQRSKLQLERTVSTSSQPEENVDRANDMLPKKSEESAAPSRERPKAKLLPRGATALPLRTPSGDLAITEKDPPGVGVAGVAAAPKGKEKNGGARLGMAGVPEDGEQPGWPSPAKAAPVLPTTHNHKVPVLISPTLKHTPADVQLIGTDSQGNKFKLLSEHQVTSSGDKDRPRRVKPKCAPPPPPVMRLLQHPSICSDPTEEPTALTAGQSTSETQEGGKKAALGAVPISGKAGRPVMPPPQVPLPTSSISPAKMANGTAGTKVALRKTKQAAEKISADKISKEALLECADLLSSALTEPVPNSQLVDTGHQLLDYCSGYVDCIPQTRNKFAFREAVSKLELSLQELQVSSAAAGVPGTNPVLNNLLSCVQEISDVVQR

Sequence of Kappa-type opioid receptor (P41145 whole entry): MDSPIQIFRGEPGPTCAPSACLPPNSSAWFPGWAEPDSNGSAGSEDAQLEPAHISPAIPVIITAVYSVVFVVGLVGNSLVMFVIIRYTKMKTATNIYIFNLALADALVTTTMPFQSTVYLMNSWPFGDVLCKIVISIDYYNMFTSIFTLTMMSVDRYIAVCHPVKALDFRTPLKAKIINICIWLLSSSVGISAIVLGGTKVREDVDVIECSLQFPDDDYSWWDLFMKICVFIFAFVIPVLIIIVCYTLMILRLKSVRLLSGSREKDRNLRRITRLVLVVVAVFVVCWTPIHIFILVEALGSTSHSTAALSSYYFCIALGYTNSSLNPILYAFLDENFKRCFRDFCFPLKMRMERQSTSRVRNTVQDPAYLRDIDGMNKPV

% of inhibition [1]: 46.8% | % of control [2]: 30% | % of control [3]: 34%
Compound: N#CC1(c2ccccn2)CCN(Cc2cc(C(=O)N3CCCC3)c(=O)n3ccccc23)CC1

% of control [4]: 35% | % of control [5]: 12% | % of control [6]: 32%
Compound: C[C@@H]1CN(c2cc(-c3nn(C)c4ccc(OC5(C)CC5)cc34)ncn2)C[C@H](C)O1

% of control [7]: 53%
Compound: FC(F)(F)c1ccc2c(c1)nc(-c1cccnc1)n2C1CC1

% of control [8]: 44% | % of control [9]: 48%
Compound: CC(C)(O)c1cncc(-c2nc3ccc(F)cc3n2C2CC2)c1

% of inhibition [10]: 39% | % of inhibition [11]: 28%
Compound: C[C@H](c1ccc(F)cc1)N(Cc1ccc(Cl)c(C(=O)O)c1)C(=O)c1cnc2ccccc2c1

% of inhibition [12]: 49% | % of inhibition [13]: 49%
Compound: CNc1cc(Oc2cc(C(=O)Nc3cc(N4CCN(C)CC4)cc(C(F)(F)F)c3)ccc2C)ncn1
